Data: US20090131258A1, “HERBICIDE COMPOSITIONS FOR UPLAND FARMING AND CONTROL METHOD” (priority 2004, published 2009)
Like-named read-outs stand apart in the source and are kept apart here.

Legend:
Format in all cases: in vivo
[1] = test system: Alopecurus myosuroides Huds.; assay: Foliar application test on Alopecurus myosuroides Huds. in upland field condition; conditions: 672 h, fresh weight day 28, read-out: Inhibitory rate (%); for inhibition at 1000 g/ha: dose 1000 g a.i./ha; for inhibition at 2000 g/ha: dose 2000 g a.i./ha
Description: Next, Test Examples of the herbicide compositions according to the invention will be presented. In the following Test Examples, the ingredient (A) was mixed with the ingredient (B), (C), (D), (E) or (F) in practice. As a result, an effect exceeding the effect expected from the effects achieved by using the individual ingredients solely (i.e., a synergistic effect) was observed. The term “synergistic effect” means the effect achieved in the case where the effect achieved by two or more chemicals acting simultaneously exceeds the additive effect expected from the activities of the respective chemicals used solely. The activity expected by using a specific combination of two herbicides (hereinafter called “expectation”) can be calculated in accordance with the following Colby's formula (refer to Colby, S. R., Weeds, 15, p. 20 to 22 (1967)).
(§1) E=X+Y−(X×Y/100) Numerical formula 1
(§2) (In the above formula, E represents an inhibitory rate expected in the case of applying a mixture of p kg/ha of a herbicide A and q kg/ha of another herbicide B. X represents the inhibitory rate achieved by the application of p kg/ha of the herbicide A. Y represents the inhibitory rate achieved by the application of q kg/ha of the herbicide B.)
(§3) When the effect achieved by the mix application in practice exceeds the value E, the combination can be regarded as achieving a synergistic effect. Inhibitory rate was determined in accordance with the following numerical formula 2.
(§4) Inhibitory rate(%)=(1−fresh weight in treated lot/fresh weight in untreated lot)×100 Numerical formula 2
A resin vat having an area of 200 cm^2 was filled with upland soil that was diluvial clay loam soil. After fertilization, Alopecurus myosuroides Huds. was sowed and the seeds were evenly covered with the soil. Then, the plants were grown under controlled conditions in a greenhouse. When the test weeds grew to the 2.0 to 2.5 leaf stage, each herbicide having been diluted at a definite concentration and mixed was uniformly sprayed to the foliage with a small-sized high pressure sprayer. The preparation containing the ingredient (A) alone was prepared in accordance with Formulation Example 1 but adding diatomaceous earth to compensate for the decrease in the ingredient (B), (C) or (F). As the preparations respectively containing the ingredients (B) and (C) alone, marketed flowables were employed. As the preparation containing the ingredient (F) alone, a marketed emulsifiable concentrate was employed. The mixed preparations were prepared by mixing the same. Then, the plants were grown under controlled conditions in the greenhouse. On the day 28 after the application, the fresh weight of the above-ground part of each weed was measured and the inhibitory rate (%) was determined in accordance with Numerical Formula 2 and the expectation was calculated in accordance with Numerical Formula 1, Tables 2 and 3 show the results.

Stellaria media Villars = assay: Foliar application test on Stellaria media Villars in upland field condition; conditions: day 28
Description: (§5) Next, Test Examples of the herbicide compositions according to the invention will be presented. In the following Test Examples, the ingredient (A) was mixed with the ingredient (B), (C), (D), (E) or (F) in practice. […] The term “synergistic effect” means the effect achieved in the case where the effect achieved by two or more chemicals acting simultaneously exceeds the additive effect expected from the activities of the respective chemicals used solely.
as §1, §2, §3, §4
(§6) A resin vat having an area of 200 cm^2 was filled with upland soil that was diluvial clay loam soil. After fertilization, Stellaria media Villars and Matricaria inodora L. were sowed and the seeds were evenly covered with the soil. Then, the plants were grown under controlled conditions in a greenhouse. When the test weeds grew to the 2.0 to 2.5 leaf stage, each herbicide having been diluted at a definite concentration and mixed was uniformly sprayed to the foliage with a small-sized high pressure sprayer. […] As the preparation containing the ingredient (D) alone, marketed wettable granules were employed. As the preparation containing the ingredient (E) alone, a marketed flowable was employed. The mixed preparations were prepared by mixing the same. Then, the plants were grown under controlled conditions in the greenhouse.

Matricaria inodora L. = assay: Foliar application test on Matricaria inodora L. in upland field condition; conditions: day 28
Description: as §5, §1, §2, §3, §4, §6

[2] = Table 5, single ingredient, dose 2 g a.i./ha
[3] = Table 5, single ingredient, dose 4 g a.i./ha
[4] = Table 4, single ingredient, dose 5 g a.i./ha
[5] = Table 4, single ingredient, dose 10 g a.i./ha

Compound CCCN(CCC)c1c([N+](=O)[O-])cc(C(F)(F)F)cc1[N+](=O)[O-] [(F), trifluralin] has an inhibition at 1000 g/ha ([1]; Table 3, single ingredient) of 55% and an inhibition at 2000 g/ha ([1]; Table 3, single ingredient) of 85%.

COc1ncc(F)c2nc(S(=O)(=O)Nc3c(F)cccc3F)nn12 [(E), florasulam] was tested, and the “Inhibitory rate (%)” value (Stellaria media Villars; [2]) was 75%, the “Inhibitory rate (%)” value (Stellaria media Villars; [3]) was 90% and the “Inhibitory rate (%)” value (Matricaria inodora L.; [2]) was 70%. For the same compound, the “Inhibitory rate (%)” value (Matricaria inodora L.; [3]) was 80%.

COC(=O)c1ccc(C(F)(F)F)nc1S(=O)(=O)[N-]C(=O)Nc1nc(OC)cc(OC)n1.[Na+] [(D), sodium salt of flupyrsulfuron-methyl] was tested, and the “Inhibitory rate (%)” value (Stellaria media Villars; [4]) was 77%, the “Inhibitory rate (%)” value (Stellaria media Villars; [5]) was 85% and the “Inhibitory rate (%)” value (Matricaria inodora L.; [4]) was 46%. For the same compound, the “Inhibitory rate (%)” value (Matricaria inodora L.; [5]) was 67%.

CC(C)c1ccc(NC(=O)N(C)C)cc1 [(B), isoproturon] showed an inhibition at 1000 g/ha ([1]; Table 2, single ingredient) of 69% and an inhibition at 2000 g/ha ([1]; Table 2, single ingredient) of 90%.

Compound CCC(CC)Nc1c([N+](=O)[O-])cc(C)c(C)c1[N+](=O)[O-] [(C), pendimethalin] has an inhibition at 1000 g/ha ([1]; Table 2, single ingredient) of 16% and an inhibition at 2000 g/ha ([1]; Table 2, single ingredient) of 22%.
